Laboratory results published in patent US20060252930A1 (priority 2003, published 2006).
Several values for one entry are separate records, joined by “and”; a condition that tells them apart may be missing. Identical values can stand only once. Like-named read-outs stand apart in the source and are kept apart here.

Tests used:
[1] = test system: Aspergillus niger ATCC 6275; test: Enhancing activity of azole antifungal agent, susceptibility test for conidiogenous fungi NCCLS M38-P (Alamar Blue); type: cell-based; conditions: for enhancing action of the activity of azole antifungal agent (in words): Aspergillus niger ATCC 6275, summary statement
Procedure: (§1) Candida albicans ATCC 64548, fluconazole resistant Candida albicans ATCC 64550 and Aspergillus niger ATCC 6275 were used as test organisms.
Enhancing activity of azole antifungal agent on Aspergillus niger ATCC 6275 was determined by the drug susceptibility test method for conidiogenous fungi proposed by NCCLS (M38-P). Spores of the strain of Aspergillus niger ATCC 6275 were suspended in the physiological saline to maintain a value at OD 530 nm being 0.09-0.11. The suspension was further diluted 100 times with PRMI1640 medium to prepare inoculating microorganism solution. […] Further, FKI-1366 substance A, FKI-1366 substance B or FKI-1366 substance C, 10 μl, each of which was prepared for maintaining the final concentration of 2.5, 5.0 and 10 μg/ml, was added. Finally, the test microorganism suspension 80 μl was added. Alamar Blue solution (Asahi Glass Co., Japan) 20 μl, a coloring reagent, was added thereto and incubated at 35° C. for 24 hours. […] When IC50 value without addition of FKI-1366 substance A, FKI-1366 substance B or FKI-1366 substance C was set as 1.0, a ratio of IC50 with addition of FKI-1366 substance A, FKI-1366 substance B or FKI-1366 substance C was determined as the enhancing activity.

Solubility in solvents = type: physicochemical
[2] = test system: Candida albicans ATCC 64548; test: Enhancing activity of azole antifungal agent, yeast susceptibility test NCCLS M27-A; type: cell-based; conditions: for enhancing action of the activity of azole antifungal agent (in words): C. albicans ATCC64548, summary statement; for Ratio (enhancing activity): IC50 without addition set as 1.0
Procedure: as §1
(§2) Enhancing activity of azole antifungal agent on Candida albicans ATCC 64548 and ATCC 64550 was determined by yeast susceptibility test method, National Committee for Clinical Standard (NCCLS) Standard Method M27-A. Each suspension of inoculating strain was spread over YM agar medium (0.5% yeast extract, 0.5% malt extract, 0.5% peptone, 1% glucose and 1.5% agar) and cultured at 35° C. for 36 hours. Five grown colonies with a diameter 1 mm or more were collected and the colonies were suspended in physiological saline 5 ml. The suspension was further diluted with physiological saline to prepare the test microorganism suspension having McFarland transmittance 0.5. RPMI 1640 medium 70 μl was added into 96 well plastic plate (Corning Inc., U.S.). […] Finally, the test microorganism suspension 100 μl was added and incubated at 35° C. for 24 hours. […] When IC50 value without addition of FKI-1366 substance A, FKI-1366 substance B or FKI-1366 substance C was set as 1.0, a ratio of IC50 with addition of FKI-1366 substance A, FKI-1366 substance B or FKI-1366 substance C was determined as the enhancing activity.

[3] = test system: fluconazole resistant Candida albicans ATCC 64550; type: cell-based; conditions: for Ratio (enhancing activity): IC50 without addition set as 1.0; for enhancing action of the activity of azole antifungal agent (in words): fluconazole resistant C. albicans ATCC64550, summary statement
Procedure: as §1, §2

[4] = Table 1, miconazole + FKI-1366 substance 2.5 μg/ml, IC50 without addition set as 1.0
[5] = Table 1, miconazole + FKI-1366 substance 5.0 μg/ml, IC50 without addition set as 1.0
[6] = Table 1, miconazole + FKI-1366 substance 10 μg/ml, IC50 without addition set as 1.0
[7] = Table 2 (fluconazole) + FKI-1366 substance 2.5 μg/ml, IC50 without addition set as 1.0
[8] = Table 2 (fluconazole) + FKI-1366 substance 5.0 μg/ml, IC50 without addition set as 1.0
[9] = Table 2 (fluconazole) + FKI-1366 substance 10 μg/ml, IC50 without addition set as 1.0
[10] = DMSO, methanol, chloroform and ethyl acetate
[11] = Table 1, miconazole + FKI-1366 substance 0.5 μg/ml
[12] = Table 1, miconazole + FKI-1366 substance 1.0 μg/ml
[13] = Table 1, miconazole + FKI-1366 substance 2.0 μg/ml
[14] = Table 2 (fluconazole) + FKI-1366 substance 0.5 μg/ml
[15] = Table 2 (fluconazole) + FKI-1366 substance 1.0 μg/ml
[16] = Table 2 (fluconazole) + FKI-1366 substance 2.0 μg/ml

Structure (SMILES) | enhancing action of the activity of azole antifungal agent (in words) [1] | Ratio (enhancing activity) [1, 4] | Ratio (enhancing activity) [1, 5] | Ratio (enhancing activity) [1, 6] | Ratio (enhancing activity) [1, 7] | Ratio (enhancing activity) [1, 8] | Ratio (enhancing activity) [1, 9] | Solubility in solvents (Solubility in solvents; [10]) | Solubility in solvents (Solubility in solvents; water and n-hexane) | enhancing action of the activity of azole antifungal agent (in words) [2] | Ratio (enhancing activity) [2, 11] | Ratio (enhancing activity) [2, 12] | Ratio (enhancing activity) [2, 13] | Ratio (enhancing activity) [3, 11] | Ratio (enhancing activity) [3, 12] | Ratio (enhancing activity) [3, 13] | Ratio (enhancing activity) [3, 14] | Ratio (enhancing activity) [3, 15] | Ratio (enhancing activity) [3, 16] | enhancing action of the activity of azole antifungal agent (in words) [3] | further results
CC(C)C1OC(=O)C(Cc2ccccc2)N(C)C(=O)C(C(C)C)OC(=O)C(Cc2ccccc2)N(C)C(=O)C(C(C)C)OC(=O)C(Cc2ccccc2)NC1=O (stereo not shown) [FKI-1366 substance A] | enhancing action | 5.5 | 9.6 | 10.9 | 5.5 | 9.6 | 10.9 | Soluble | Slightly soluble | enhancing action | 1.0 | 1.4 | >55 | 1.2 | 5.0 | >60 | 1.2 | 5.0 | >60 | enhancing action | Ratio (enhancing activity) [2, 14]: 1.0; Ratio (enhancing activity) [2, 15]: 1.4; Ratio (enhancing activity) [2, 16]: >55
CC(C)CC1NC(=O)C(C(C)C)OC(=O)C(Cc2ccccc2)N(C)C(=O)C(C(C)C)OC(=O)C(Cc2ccccc2)N(C)C(=O)C(C(C)C)OC1=O (stereo not shown) [FKI-1366 substance B] | enhancing action | 1.8 | 2.4 | 3.5 |  |  |  | Soluble | Slightly soluble | enhancing action | 1.7 | 6.0 | >55 | 1.4 | 4.2 | >60 | 1.4 | 4.2 | >60 | enhancing action | Ratio (enhancing activity) [1]: 1.8 and 2.4 and 3.5
CC(C)CC1OC(=O)C(Cc2ccccc2)N(C)C(=O)C(C(C)C)OC(=O)C(Cc2ccccc2)N(C)C(=O)C(C(C)C)OC(=O)C(Cc2ccccc2)N(C)C1=O (stereo not shown) [FKI-1366 substance C] | enhancing action | 5.2 | 8.0 | 11.0 | 5.2 | 8.0 | 11.0 | Soluble | Slightly soluble | enhancing action | 1.0 | 2.5 | >55 | 1.0 | 1.1 | 3.9 | 1.0 | 1.1 | 3.9 | enhancing action | Ratio (enhancing activity) [2, 14]: 1.0; Ratio (enhancing activity) [2, 15]: 2.5; Ratio (enhancing activity) [2, 16]: >55
